In brackets after ≈: the same amount, converted by molar mass. Some results are limits rather than exact numbers.

Experimental findings from ChEMBL document CHEMBL4382234, “Fluoroquinolone-isatin hybrids and their biological activities” (Eur J Med Chem, 2019) are described below.

Data set [1] deals with Mycobacterium tuberculosis. As to the kind of experiment: Antitubercular activity against Mycobacterium tuberculosis H37Rv by microplate alamar blue assay. In kind it is functional. (Resazurin is reduced to fluorescent resorufin, in cell work by metabolically active cells.)
A short description of data set [2]: Toxicity in po dosed CF mouse measured after 1 week. In kind it is organism-based. The conditions noted are these: in vivo.
In data set [3] the test system is Escherichia coli. The data set is described as follows: Potency index, ratio of norfloxacin ED50 to test compound ED50 for antibacterial activity against Escherichia coli NCTC 10418 infected in po dosed CF mouse. Format: functional.
For data set [4], the system named is Escherichia coli. The data set is described as follows: Antibacterial activity against Escherichia coli NCTC 10418 infected in po dosed CF mouse measured after 1 week. The conditions noted are these: NCTC 10418, po, 168 h. In kind it is functional.
In another data set the test system is HepG2. As to the kind of experiment: Anticancer activity against human HepG2 cells after 48 hrs by MTT assay. In kind it is functional, cell-based. As to conditions: HepG2, 48 h. (Tetrazolium assays rely on reduction of a dye to a coloured formazan, in cell work by metabolically active cells.)
The next data set has as its system A549. The data set is described as follows: Anticancer activity against human A549 cells after 48 hrs by MTT assay. The conditions noted are these: A549, 48 h. Format: functional, cell-based.
The next data set concerns SW480. As to the kind of experiment: Anticancer activity against human SW480 cells after 48 hrs by MTT assay. Format: functional, cell-based. The conditions noted are these: SW480, 48 h.
For a further data set, the system named is HeLa. As to the kind of experiment: Anticancer activity against human HeLa cells after 48 hrs by MTT assay. In kind it is functional, cell-based.
In data set [5] the test system is Mycobacterium tuberculosis. The data set is described as follows: Antimycobacterial activity against Mycobacterium tuberculosis H37Rv after 3 to 7 days by rapid direct susceptibility test. In kind it is functional.
Data set [6] concerns Staphylococcus epidermidis. The data set is described as follows: Antibacterial activity against Staphylococcus epidermidis by agar dilution method. Format: functional.
The subject of another data set is Pseudomonas aeruginosa. The data set is described as follows: Antibacterial activity against Pseudomonas aeruginosa by agar dilution method. In kind it is functional. (In agar dilution the substance is mixed into plates at graded concentrations.)
Another data set has as its system Shigella flexneri. As to the kind of experiment: Antibacterial activity against Shigella flexneri by agar dilution method. Format: functional.
Another data set relates to Vibrio cholerae. The data set is described as follows: Antibacterial activity against Vibrio cholerae by agar dilution method. Format: functional.
For a further data set, the system named is Salmonella typhi. The data set is described as follows: Antibacterial activity against Salmonella typhi by agar dilution method. In kind it is functional, Salmonella enterica subsp. enterica serovar Typhi. The conditions noted are these: Salmonella enterica.
For a further data set, the system named is Klebsiella pneumoniae. As to the kind of experiment: Antibacterial activity against Klebsiella pneumoniae by agar dilution method. In kind it is functional.
In data set [7] the test system is Escherichia coli. As to the kind of experiment: Antibacterial activity against Escherichia coli by agar dilution method. In kind it is functional.
The next data set has as its system Citrobacter freundii. As to the kind of experiment: Antibacterial activity against Citrobacter freundii by agar dilution method. In kind it is functional.
For a further data set, the system named is Staphylococcus aureus. The data set is described as follows: Antibacterial activity against Staphylococcus aureus by agar dilution method. In kind it is functional.

Turning to `COc1cc(Cc2cnc(/N=C3\C(=O)N(CN4CCN(c5c(F)cc6c(=O)c(C(=O)O)cn(C7CC7)c6c5OC)CC4C)c4ccc(F)cc43)nc2N)cc(OC)c1OC` (centres undefined), in data set [1], the MIC lay in the range of 0.78 to 3.13 µg/mL (≈ 0.946 to 3.79 µM).
As to `CCn1cc(C(=O)O)c(=O)c2cc(F)c(N3CCN(CN4C(=O)/C(=N\c5ccc(S(=O)(=O)Nc6ncccn6)cc5)c5ccccc54)CC3)cc21`, the 50% lethal dose (LD50) at 168 h in data set [2] was greater than 4000 mg/kg. Moreover, the Ratio with Escherichia coli [3] amounted to 4.8. The molecule further had an ED50 with Escherichia coli [4] of 1.25 mg/kg.
Molecule `CCn1cc(C(=O)O)c(=O)c2cc(F)c(N3CCN(CN4C(=O)/C(=N\c5ncc(Cc6cc(OC)c(OC)c(OC)c6)c(N)n5)c5cc(Cl)ccc54)C(C)C3)c(F)c21` (centres undefined) had a minimum inhibitory concentration (MIC) in [1] of 0.78 to 3.13 µg/mL (≈ 0.954 to 3.83 µM).
In the case of `CCn1cc(C(=O)O)c(=O)c2cc(F)c(N3CCN(CN4C(=O)/C(=N\c5ncc(Cc6cc(OC)c(OC)c(OC)c6)c(N)n5)c5cc(Br)ccc54)CC3)cc21`, the Ratio in the data set on Escherichia coli [3] came out at 3.7. Also, in the data set on Escherichia coli [4], the ED50 amounted to 1.62 mg/kg.
Take `COc1cc(Cc2cnc(/N=C3\C(=O)N(CN4CCN(c5c(F)cc6c(=O)c(C(=O)O)cn(C7CC7)c6c5OC)CC4C)c4ccc(C)cc43)nc2N)cc(OC)c1OC` (centres undefined): in [1], the MIC lay within 0.78 to 3.13 µg/mL (≈ 0.95 to 3.81 µM).
`NC[C@H]1O[C@H](O[C@H]2[C@H](O)[C@@H](O[C@H]3O[C@H](CO)[C@@H](O)[C@H](N)[C@H]3O)[C@H](N)C[C@@H]2N)[C@H](O)[C@@H](O)[C@@H]1O` [KANAMYCIN] registered an MIC in [1] of 5 µg/mL (≈ 10.3 µM).
Consider `CC1CN(c2c(F)c(N)c3c(=O)c(C(=O)O)cn(C4CC4)c3c2F)CC(C)N1CN1C(=O)C(=O)c2ccccc21` (centres undefined), for which the IC50 in the data set with HepG2, in the data set on A549, in the data set with SW480 and in the data set on HeLa was 18.3 to 50 µg/mL (≈ 33.2 to 90.7 µM) in each case.
As to `COc1c(N2C[C@@H]3CCCN(Cc4cn(CCN5C(=O)/C(=N/O)c6cc(Br)ccc65)nn4)[C@@H]3C2)c(F)cc2c(=O)c(C(=O)O)cn(C3CC3)c12`, the MIC in data set [5] was 0.1 to 0.78 µg/mL (≈ 0.133 to 1.04 µM).
`CCn1cc(C(=O)O)c(=O)c2cc(F)c(N3CCN(CN4C(=O)/C(=N\c5ncc(Cc6cc(OC)c(OC)c(OC)c6)c(N)n5)c5cc(C)ccc54)C(C)C3)c(F)c21` (centres undefined): the MIC in data set [1] was 0.78 to 3.13 µg/mL (≈ 0.979 to 3.93 µM).
On to `COc1ncnc(NS(=O)(=O)c2ccc(/N=C3\C(=O)N(CN4C(C)CN(c5c(F)c(N)c6c(=O)c(C(=O)O)cn(C7CC7)c6c5F)CC4C)c4ccccc43)cc2)c1OC` (centres undefined), for which the IC50 in the data set on HepG2, in the data set on A549, with SW480 and with HeLa was 18.3 to 33.6 µg/mL (≈ 21.7 to 39.8 µM) in each case.
`CCn1cc(C(=O)O)c(=O)c2cc(F)c(N3CCN(CN4C(=O)C(=O)c5ccccc54)C(C)C3)c(F)c21` (centres undefined): the MIC (in data set [6]; in the data set on Pseudomonas aeruginosa; against Shigella flexneri; against Vibrio cholerae; in the data set on Salmonella typhi; against Klebsiella pneumoniae) was 0.25 to 2.5 µg/mL (≈ 0.49 to 4.9 µM) throughout. The MIC against Escherichia coli [7], against Citrobacter freundii and against Staphylococcus aureus was 0.25 to 2.5 µg/mL (≈ 0.49 to 4.9 µM) in each case.
Consider `O=C1C(=O)N(CN2CCN(c3cc4c(cc3F)c(=O)c(C(=O)O)cn4C3CC3)CC2)c2ccccc21`, for which the MIC (in data set [6]; in the data set on Pseudomonas aeruginosa; against Shigella flexneri; in the data set with Vibrio cholerae; in the data set with Salmonella typhi; against Klebsiella pneumoniae) was 0.1 to 0.5 µg/mL (≈ 0.204 to 1.02 µM) each time. Moreover, the minimal inhibitory concentration (MIC) with Escherichia coli [7], in the data set on Citrobacter freundii and in the data set on Staphylococcus aureus was 0.1 to 0.5 µg/mL (≈ 0.204 to 1.02 µM) throughout.
Take `COc1c(N2C[C@@H]3CCCN(Cc4cn(CCN5C(=O)/C(=N/NC(N)=O)c6ccccc65)nn4)[C@@H]3C2)c(F)cc2c(=O)c(C(=O)O)cn(C3CC3)c12`: in data set [5], the MIC lay within 0.1 to 0.78 µg/mL (≈ 0.14 to 1.09 µM).
Consider `Cc1ccc2c(c1)C(=O)C(=O)N2CN1CCN(c2cc3c(cc2F)c(=O)c(C(=O)O)cn3C2CC2)CC1`, for which the MIC (in [6]; in the data set with Pseudomonas aeruginosa; in the data set with Shigella flexneri; against Vibrio cholerae; with Salmonella typhi; in the data set on Klebsiella pneumoniae) was 0.1 to 0.5 µg/mL (≈ 0.198 to 0.991 µM) throughout. For the same molecule, the MIC with Escherichia coli [7], against Citrobacter freundii and with Staphylococcus aureus was 0.1 to 0.5 µg/mL (≈ 0.198 to 0.991 µM) each time.
With `NNC(=O)c1ccncc1` [ISONIAZID], the minimum inhibitory concentration (MIC) in [5] is greater than 128 µg/mL; in data set [1], 0.05 µg/mL (≈ 0.365 µM).
For `Cc1cc(C)nc(NS(=O)(=O)c2ccc(/N=C3\C(=O)N(CN4C(C)CN(c5c(F)c(N)c6c(=O)c(C(=O)O)cn(C7CC7)c6c5F)CC4C)c4ccccc43)cc2)n1` (centres undefined), the IC50 with HepG2, with A549, in the data set on SW480 and in the data set on HeLa was 18.3 to 50 µg/mL (≈ 22.6 to 61.6 µM) in each case.
In the case of `COc1c(N2C[C@@H]3CCCN(Cc4cn(CCN5C(=O)C(=O)c6cc(Br)ccc65)nn4)[C@@H]3C2)c(F)cc2c(=O)c(C(=O)O)cn(C3CC3)c12`, the MIC in data set [5] was 0.1 to 0.78 µg/mL (≈ 0.136 to 1.06 µM).

The term MIC denotes the least concentration at which growth counts as inhibited. Read a low MIC as a more susceptible organism. In general, LD50 refers to the dose expected to kill half of the subjects tested. What is called ED50 is the dose at which the effect has come halfway, by size or by number of responders. For orientation: IC50 means the concentration at which inhibition is half-maximal. A low value points to higher potency.
